Test results from patent US8207330B2, “Two-photon absorption material and application thereof” (Ricoh Company, Ltd., priority 2008, dated 2012).

test: Two-photon absorption cross-sectional area, Z scan method, Examples B; type: physicochemical; details: tetrahydrofuran solution, femtosecond laser, 780 nm to 960 nm (710 nm to 990 nm)
Method: Each of Compounds (1), (2), (57), (58), (59), (60), (3), (4), (61), (62), (25), (26), (63), (64), (65), (66), (45), (67), (68), (69), (70), (71), (72), (5), (9), (13), (19), (27), (31), (32), (34), (36), (39), (44), (53) and (55) was dissolved in tetrahydrofuran, and the resultant tetrahydrofuran solution was measured for its two-photon absorption cross-sectional area according to the below-described evaluation method therefor.
This measurement was performed under the following conditions:
Sample concentration: 10^−2 mol to 10^−5 mol (this range covering optimal concentrations of the samples (at which measurements are easily performed));
Light path length of cell: 10 mm (corresponding to the inner diameter of cuvette);
Light: variable femtosecond laser having a wavelength of 710 nm to 990 nm; and
Light power: 10 mW to 800 mW.
The following compound (73) was dissolved in tetrahydrofuran, and the resultant solution was measured for its two-photon absorption cross-sectional area according to the below-described evaluation method therefor.
The following compound (74) was dissolved in tetrahydrofuran, and the resultant solution was measured for its two-photon absorption cross-sectional area according to the below-described evaluation method therefor.
[drawing 68] [Method for Measuring Two-Photon Absorption Cross-Sectional Area]
(§1) FIG. 8 schematically illustrates a system of the method.
(§2) Measuring light source: femtosecond titanium sapphire laser
(§3) Repetition frequency: 80 MHz
(§4) Measuring method: Z scan method
(§5) Inner diameter of cuvette: 10 mm
(§6) Light power for measurement: about 500 mW
(§7) Collection diameter: 40 μm to 50 μm
(§8) A quartz cell filled with each sample solution was placed in a light path through which a focused laser beam was passed. Then, the cell was moved along the light path for Z-scan measurement.
The sample solution was measured for its transmittance, and the thus-obtained value and the following theoretical equation (I) were used to determine a nonlinear absorption coefficient of the sample. T=[ln(1+I0L0β)]/I0L0β (I)
where T denotes a transmittance (%), I0 denotes an excited light density [GW/cm^2], L0 denotes a sample cell length [cm], and β denotes a nonlinear absorption coefficient [cm/GW].
The thus-determined nonlinear absorption coefficient and the following equation (ii) were used to calculate a two-photon absorption cross-sectional area σ. Note that the unit of σ is GM (1 GM=1×10^−50 cm^4·s·photon^−1). σ=1,000×hvβ/[…] (ii)
(§9) where h denotes the Planck's constant [J·s], v denotes a frequency of an incident laser beam [s^−1], NA denotes the Avogadoro's number, and C denotes a concentration of a solution [mol/L].

Two-photon absorption cross-sectional area | SMILES
890 GM | CCC1=C(C)c2nc1cc1[nH]c(c(C)c1CC)c(-c1ccccc1C(F)(F)F)c1nc(c(-c3ccc4c(c3)C(C)(C)c3cc(-c5c6nc(c(-c7ccccc7C(F)(F)F)c7[nH]c(cc8nc(c(-c9ccccc9C(F)(F)F)c9[nH]c5c(CC)c9C)C(C)=C8CC)c(CC)c7C)C(C)=C6CC)ccc3-4)c3[nH]c(c(C)c3CC)c2-c2ccccc2C(F)(F)F)C(CC)=C1C [(39)]
1,000 GM | CC1=C(C)C2=C(I)c3c(C)c(C)c4[n]3[Zn][n]3c(cc(C)c3=C(c3ccccc3C(F)(F)F)C1=N2)=C(c1ccc2c(c1)C(C)(C)c1cc(C3=C5N=C(C(C)=C5C)C(c5ccccc5C(F)(F)F)=c5c(C)c(C)c6[n]5[Zn][n]5c3c(C)c(C)c5C(c3ccccc3C(F)(F)F)=C3N=C(C(C)=C3C)C=6I)ccc1-2)C1=NC(=C4c2ccccc2C(F)(F)F)C(C)=C1C [(44)]
840 GM | CCC1=C(C)c2nc1c(Br)c1[nH]c(c(C)c1CC)c(Br)c1nc(c(-c3ccc(N(c4ccccc4)c4ccc(-c5c6nc(c(-c7ccccc7C(F)(F)F)c7[nH]c(c(Br)c8nc(c(Br)c9[nH]c5c(CC)c9C)C(C)=C8CC)c(CC)c7C)C(C)=C6CC)cc4)cc3)c3[nH]c(c(C)c3CC)c2-c2ccccc2C(F)(F)F)C(CC)=C1C [(53)]
850 GM | CCC1=C(C)c2cc3[nH]c(c(CC)c3C)c(-c3ccc(N(c4ccccc4)c4ccc(-c5c6nc(cc7[nH]c(cc8nc(c(-c9ccc(-c%10ccccn%10)nc9)c9[nH]c5c(CC)c9C)C(C)=C8CC)c(CC)c7C)C(C)=C6CC)cc4)cc3)c3nc(c(-c4ccc(-c5ccccn5)nc4)c4[nH]c(cc1n2)c(CC)c4C)C(C)=C3CC [(55)]
900 GM | CCCCCCc1ccc(N(c2ccc(C3=C4N=C(C(C)=C4CC)C(c4c(C)cc(C)cc4C)=c4c(C)c(CC)c5[n]4[Ni][n]4c(c(C)c(CC)c43)C(c3c(C)cc(C)cc3C)=C3N=C(C=5)C(CC)=C3C)cc2)c2ccc(C3=c4c(CC)c(C)c5[n]4[Ni][n]4c(c(CC)c(C)c4C(c4c(C)cc(C)cc4C)=C4N=C3C(CC)=C4C)C=C3N=C(C(C)=C3CC)C=5c3c(C)cc(C)cc3C)cc2)cc1 [(63)]
890 GM | CCCCCCc1ccc(N(c2ccc(C3=C4N=C(C(C)=C4CC)C(c4c(C)cc(C)cc4C)=c4c(C)c(CC)c5[n]4[Pd][n]4c(c(C)c(CC)c43)C(c3c(C)cc(C)cc3C)=C3N=C(C=5)C(CC)=C3C)cc2)c2ccc(C3=c4c(CC)c(C)c5[n]4[Pd][n]4c(c(CC)c(C)c4C(c4c(C)cc(C)cc4C)=C4N=C3C(CC)=C4C)C=C3N=C(C(C)=C3CC)C=5c3c(C)cc(C)cc3C)cc2)cc1 [(64)]
810 GM | CCCCCCc1ccc(N(c2ccc(C3=C4N=C(C(C)=C4CC)C(c4c(C)cc(C)cc4C)=c4c(C)c(CC)c5[n]4[Co][n]4c(c(C)c(CC)c43)C(c3c(C)cc(C)cc3C)=C3N=C(C=5)C(CC)=C3C)cc2)c2ccc(C3=c4c(CC)c(C)c5[n]4[Co][n]4c(c(CC)c(C)c4C(c4c(C)cc(C)cc4C)=C4N=C3C(CC)=C4C)C=C3N=C(C(C)=C3CC)C=5c3c(C)cc(C)cc3C)cc2)cc1 [(65)]
820 GM | CCCCCCc1ccc(N(c2ccc(C3=C4N=C(C(C)=C4CC)C(c4c(C)cc(C)cc4C)=c4c(C)c(CC)c5[n]4[Cu][n]4c(c(C)c(CC)c43)C(c3c(C)cc(C)cc3C)=C3N=C(C=5)C(CC)=C3C)cc2)c2ccc(C3=c4c(CC)c(C)c5[n]4[Cu][n]4c(c(CC)c(C)c4C(c4c(C)cc(C)cc4C)=C4N=C3C(CC)=C4C)C=C3N=C(C(C)=C3CC)C=5c3c(C)cc(C)cc3C)cc2)cc1 [(66)]

Continued, compound first:

SMILES | Two-photon absorption cross-sectional area
CCCCCCC1(CCCCCC)c2cc(C3=C4C=CC(=N4)C(c4cc(OC)c(OC)c(OC)c4)=c4ccc5[n]4[Zn][n]4c(ccc43)C(c3cc(OC)c(OC)c(OC)c3)=C3C=CC(=N3)C=5/C=C/c3ccc(N(c4ccccc4)c4ccccc4)cc3)ccc2-c2ccc(C3=c4ccc5[n]4[Zn][n]4c(ccc4C(c4cc(OC)c(OC)c(OC)c4)=C4C=CC3=N4)C=C3C=CC(=N3)C=5c3cc(OC)c(OC)c(OC)c3)cc21 [(45)] | 1,200 GM
CCC1=C(C)C2=C(c3cc(OC)c(OC)c(OC)c3)c3c(C)c(CC)c4[n]3[Cu][n]3c(c(C)c(CC)c3=C(c3ccc(/C=C/c5ccc(N(c6ccc(C)cc6)c6ccc(C)cc6)cc5)cc3)C1=N2)=C(c1cc(OC)c(OC)c(OC)c1)C1=NC(=C4c2ccc(/C=C/c3ccc(N(c4ccc(C)cc4)c4ccc(C)cc4)cc3)cc2)C(CC)=C1C [(62)] | 840 GM
CCCCCCC1(CCCCCC)c2cc(-c3c4nc(c(-c5cc(OC)c(OC)c(OC)c5)c5ccc(cc6nc(c(-c7cc(OC)c(OC)c(OC)c7)c7ccc3[nH]7)C=C6)[nH]5)C=C4)ccc2-c2ccc(-c3c4nc(c(-c5cc(OC)c(OC)c(OC)c5)c5ccc([nH]5)c(/C=C/c5ccc(N(c6ccccc6)c6ccccc6)cc5)c5nc(c(-c6cc(OC)c(OC)c(OC)c6)c6ccc3[nH]6)C=C5)C=C4)cc21 [(67)] | 990 GM
CCCCCCC1(CCCCCC)c2cc(C3=C4C=CC(=N4)C(c4cc(OC)c(OC)c(OC)c4)=c4ccc5[n]4[Ni][n]4c(ccc43)C(c3cc(OC)c(OC)c(OC)c3)=C3C=CC(=N3)C=5/C=C/c3ccc(N(c4ccccc4)c4ccccc4)cc3)ccc2-c2ccc(C3=c4ccc5[n]4[Ni][n]4c(ccc4C(c4cc(OC)c(OC)c(OC)c4)=C4C=CC3=N4)C=C3C=CC(=N3)C=5c3cc(OC)c(OC)c(OC)c3)cc21 [(68)] | 1,020 GM
CCCCCCC1(CCCCCC)c2cc(C3=C4C=CC(=N4)C(c4cc(OC)c(OC)c(OC)c4)=c4ccc5[n]4[Cu][n]4c(ccc43)C(c3cc(OC)c(OC)c(OC)c3)=C3C=CC(=N3)C=5/C=C/c3ccc(N(c4ccccc4)c4ccccc4)cc3)ccc2-c2ccc(C3=c4ccc5[n]4[Cu][n]4c(ccc4C(c4cc(OC)c(OC)c(OC)c4)=C4C=CC3=N4)C=C3C=CC(=N3)C=5c3cc(OC)c(OC)c(OC)c3)cc21 [(69)] | 920 GM
CCCCCCC1(CCCCCC)c2cc(C3=C4C=CC(=N4)C(c4cc(OC)c(OC)c(OC)c4)=c4ccc5[n]4[Co][n]4c(ccc43)C(c3cc(OC)c(OC)c(OC)c3)=C3C=CC(=N3)C=5/C=C/c3ccc(N(c4ccccc4)c4ccccc4)cc3)ccc2-c2ccc(C3=c4ccc5[n]4[Co][n]4c(ccc4C(c4cc(OC)c(OC)c(OC)c4)=C4C=CC3=N4)C=C3C=CC(=N3)C=5c3cc(OC)c(OC)c(OC)c3)cc21 [(70)] | 900 GM
CC(C)(C)c1c2nc(c(C(C)(C)C)c3ccc([nH]3)c(C(C)(C)C)c3nc(c(C(C)(C)C)c4ccc1[nH]4)C=C3)C=C2 [(73), reference compound] | ≈0 GM
COc1ccc(-c2cc(C3=C(c4cc(-c5ccc(OC)cc5)sc4OC)C(F)(F)C(F)(F)C3(F)F)c(OC)s2)cc1 [(74), reference compound] | 15 GM

test: Two-photon absorption cross-sectional area, Z scan method, Examples A (800 nm); type: physicochemical; details: tetrahydrofuran solution, femtosecond titanium sapphire laser
Method: Each of the above-given compounds Nos. 1, 2, 4, 5, 6, 7, 10, 11, 15, 16, 17, 20, 24, 25, 27 and 28 of the present invention was dissolved in tetrahydrofuran, and the resultant solution was measured for its two-photon absorption cross-sectional area according to the below-described evaluation method therefor.
The following compound (29) was dissolved in tetrahydrofuran, and the resultant solution was measured for its two-photon absorption cross-sectional area according to the below-described evaluation method therefor.
The following compound (30) was dissolved in tetrahydrofuran, and the resultant solution was measured for its two-photon absorption cross-sectional area according to the below-described evaluation method therefor.
[drawing 66] [Method for Measuring Two-Photon Absorption Cross-Sectional Area]
as §1, §2, §3, §4
Wavelength of light source: 800 nm
as §5, §6, §7, §8
The sample solution was measured for its transmittance, and the thus-obtained value and the following theoretical equation (1) were used to determine a nonlinear absorption coefficient of the sample. T=[ln(1+I0L0β)]/I0L0β (1) where T denotes a transmittance (%), I0 denotes an excited light density [GW/cm^2], L0 denotes a sample cell length [cm], and β denotes a nonlinear absorption coefficient [cm/GW].
The thus-determined nonlinear absorption coefficient and the following equation (2) were used to calculate a two-photon absorption cross-sectional area σ. Note that the unit of σ is GM (1 GM=1×10^−50 cm^4·s·photon^−1). σ=1,000×hvβ/[…] (2)
as §9

SMILES | Two-photon absorption cross-sectional area
CC1=C(C)c2nc1c(-c1ccc(C#N)cc1)c1[nH]c(c(C)c1C)c(-c1ccc(/C=C/c3ccc(N(c4ccccc4)c4ccc(C)cc4)cc3)cc1)c1nc(c(-c3ccc(C#N)cc3)c3[nH]c(c(C)c3C)c2-c2ccc(/C=C/c3ccc(N(c4ccccc4)c4ccc(C)cc4)cc3)cc2)C(C)=C1C [compound 5] | 1,480 GM
Cc1ccc(N(c2ccc(C)cc2)c2ccc(/C=C/c3ccc(C4=c5ccc6[n]5[Ni][n]5c(ccc5C(c5cccc(C7OCC(C)(C)CO7)c5)=C5C=CC4=N5)C(Cl)=C4C=CC(=N4)C=6c4cccc(C5OCC(C)(C)CO5)c4)cc3)cc2)cc1 [compound 6] | 730 GM
